Values joined by “and” are separate entries in the source; they are usually repeats but may differ in a detail not shown here. Equal entries are not always repeated. One block for each compound: values may come before it.
Biological target: T1, recombinant human SIRT1 (Homo sapiens, UniProt Q96EB6)
T1 sequence (Q96EB6 1-747): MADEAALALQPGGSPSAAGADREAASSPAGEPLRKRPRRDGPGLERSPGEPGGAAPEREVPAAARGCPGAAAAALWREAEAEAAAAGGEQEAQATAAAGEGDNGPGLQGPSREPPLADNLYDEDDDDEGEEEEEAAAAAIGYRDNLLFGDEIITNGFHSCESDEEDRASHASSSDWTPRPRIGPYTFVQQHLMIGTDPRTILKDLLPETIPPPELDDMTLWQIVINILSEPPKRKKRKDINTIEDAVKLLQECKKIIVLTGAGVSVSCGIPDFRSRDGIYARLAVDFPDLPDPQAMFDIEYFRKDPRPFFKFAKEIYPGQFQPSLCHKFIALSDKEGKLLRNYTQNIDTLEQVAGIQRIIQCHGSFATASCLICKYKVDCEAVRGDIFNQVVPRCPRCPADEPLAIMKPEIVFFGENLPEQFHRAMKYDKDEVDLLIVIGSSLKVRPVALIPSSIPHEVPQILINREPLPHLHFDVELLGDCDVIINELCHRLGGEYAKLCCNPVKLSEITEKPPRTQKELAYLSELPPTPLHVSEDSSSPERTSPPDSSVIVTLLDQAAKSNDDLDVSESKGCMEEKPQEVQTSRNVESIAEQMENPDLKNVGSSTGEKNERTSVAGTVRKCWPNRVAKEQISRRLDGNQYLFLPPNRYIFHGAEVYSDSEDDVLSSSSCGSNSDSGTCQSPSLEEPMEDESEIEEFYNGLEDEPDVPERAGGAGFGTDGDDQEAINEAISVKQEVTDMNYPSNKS
Test: SIRT1 fluorescent deacetylation assay (p53-382 acetylated peptide substrate)
Assay type: biochemical
Conditions: for Ratio to Control Rate Mean ± SE: 25 μM NAD+, 25 μM p53-382 acetylated peptide

[1] = Supplementary Table 4, isoflavones, flavanones, anthocyanidins, 100 μM
[2] = Table 11, resveratrol analogs, 100 μM
[3] = Supplementary Table 7, miscellaneous compounds, 100 μM
[4] = Supplementary Table 2, flavones part I, 100 μM
[5] = Supplementary Table 3, flavones part II, 100 μM

- Ratio to Control Rate Mean ± SE [1]: 1.97 ± 0.22
SMILES: O=C1c2c(O)cc(O)cc2OC(c2ccc(O)c(O)c2)C1O (centres unmarked) [3,5,7,3′,4′-Pentahydroxyflavanone]

- Ratio to Control Rate Mean ± SE (Table 12, resveratrol analogs, 100 μM): 1.127 ± 0.019
SMILES: COc1ccc(/C=C/c2ccccc2)cc1OC [3,4-Dimethoxy-trans-stilbene]

- Ratio to Control Rate Mean ± SE (Supplementary Table 6, free radical protective compounds, 100 μM): 0.995 ± 0.019
SMILES: Cc1c(C)c2c(c(C)c1O)CCC(C)(C(=O)O)O2 (centres unmarked) [Trolox, 6-Hydroxy-2,5,7,8-tetramethylchroman-2-carboxylic acid, reference compound]

SMILES: CC(=O)Oc1cc(O)cc(/C=C/c2ccc(O)cc2)c1 [BML-227, 3,4′-Dihydroxy-5-acetoxy-trans-stilbene]
- Ratio to Control Rate Mean ± SE [2]: 3.340 ± 0.093

SMILES: O=C(Nc1cccc(C(=O)Nc2ccc(S(=O)(=O)O)c3cc(S(=O)(=O)O)cc(S(=O)(=O)O)c23)c1)Nc1cccc(C(=O)Nc2ccc(S(=O)(=O)O)c3cc(S(=O)(=O)O)cc(S(=O)(=O)O)c23)c1 [NF023, reference compound]
- Ratio to Control Rate Mean ± SE [3]: −0.0016

- Ratio to Control Rate Mean ± SE [1]: 2.10 ± 0.23
SMILES: O=C1CC(c2ccc(O)cc2)Oc2cc(O)cc(O)c21 (centres unmarked) [Naringenin, 5,7,4′-Trihydroxyflavanone]

SMILES: Oc1cc(O)c2cc(O)c(-c3ccc(O)c(O)c3)[o+]c2c1.[Cl-] [Cyanidin chloride, 3,5,7,3′,4′-Pentahydroxyflavylium chloride]
- Ratio to Control Rate Mean ± SE [1]: 0.451 ± 0.015

- Ratio to Control Rate Mean ± SE (Supplementary Table 1, stilbenes and chalcones, 100 μM): 1.34 ± 0.17
SMILES: O=C(/C=C/c1ccccc1)c1ccccc1 [Chalcone]

- Ratio to Control Rate Mean ± SE (Table 9, resveratrol analogs, 100 μM): 7.72 ± 0.12
SMILES: Cc1ccc(/C=C/c2cc(O)cc(O)c2)cc1 [BML-228, 3,5-Dihydroxy-4′-methyl-trans-stilbene]

- Ratio to Control Rate Mean ± SE [4]: 6.05 ± 0.98
SMILES: O=c1cc(-c2cc(O)c(O)c(O)c2)oc2cc(O)cc(O)c12 [5,7,3′4′,5′-Pentahydroxyflavone]

- Ratio to Control Rate Mean ± SE [5]: 1.74 ± 0.27
SMILES: O=c1c(O)c(-c2cccc(O)c2O)oc2ccc(O)cc12 [3,6,2′,3′-Tetrahydroxyflavone]

- Ratio to Control Rate Mean ± SE [2]: 3.05 ± 0.37
SMILES: Oc1cc(O)cc(/C=C/c2ccc3ccccc3c2)c1 [BML-218, (E)-1-(3,5-Dihydroxyphenyl)-2-(2-napthyl) ethene]

- Ratio to Control Rate Mean ± SE [5]: 1.22 ± 0.19
SMILES: O=c1cc(-c2ccccc2)oc2cccc(O)c12 [5-Hydroxyflavone]

SMILES: Oc1cccc(/C=C/c2ccccc2)c1 [3-Hydroxystilbene]
- Ratio to Control Rate Mean ± SE [2]: 2.357 ± 0.074

- Ratio to Control Rate Mean ± SE [4]: 3.62 ± 0.56
SMILES: O=c1cc(-c2cc(O)c(O)c(O)c2)oc2cc(O)ccc12 [7,3′,4′,5′-Tetrahydroxyflavone]

- Ratio to Control Rate Mean ± SE [2]: 4.060 ± 0.069
SMILES: COc1ccc(/C=C/c2cc(O)cc(O)c2)cc1O [Rhapontin aglycone, 3,5,3′Trihydroxy-4′-methoxy-trans-stilbene]

- SIRT1 Vmax decrease (50 μM nicotinamide, absence of resveratrol, NAD+ or p53-382 peptide varied): 30% and 36%
- Ratio to Control Rate Mean ± SE [3]: 0.428
SMILES: NC(=O)c1cccnc1 [Nicotinamide, reference compound]

- Ratio to Control Rate Mean ± SE (Supplementary Table 8, compound at 10 μM): 2.30 ± 0.31
SMILES: O=c1oc2cc(O)ccc2c2oc3cc(O)ccc3c12 [Coumestrol]

- Ratio to Control Rate Mean ± SE [1]: 1.92 ± 0.24
SMILES: O=C1CC(c2ccccc2)Oc2ccccc21 (centres unmarked) [Flavanone]

- Ratio to Control Rate Mean ± SE [4]: 3.06 ± 0.29
SMILES: O=c1cc(-c2ccc(O)cc2)oc2cc(O)c(O)c(O)c12 [6-Hydroxyapigenin, 5,6,7,4′-Tetrahydroxyflavone]

SMILES: Oc1ccc(CCc2cc(O)cc(O)c2)cc1 [Dihydroresveratrol, 1-(3,5-Dihydroxyphenyl)-2-(4-hydroxyphenyl) ethane]
- Ratio to Control Rate Mean ± SE (Table 13, resveratrol analogs, 100 μM): 1.08 ± 0.14

SMILES: Cc1ccc(NC(=O)c2cccc(N(C)C)c2)cc1NC(=O)c1ccc(O)cc1 [ZM 336372, reference compound]
- Ratio to Control Rate Mean ± SE (Supplementary Table 8, compound at 100 μM): 3.5 ± 1.1

- Ratio to Control Rate Mean ± SE [5]: 1.56 ± 0.15
SMILES: O=c1cc(-c2ccc(O)cc2)oc2cccc(O)c12 [5,4′-Dihydroxyflavone]

SMILES: Oc1cc(O)c2cc(O)c(-c3cc(O)c(O)c(O)c3)[o+]c2c1.[Cl-] [Delphinidin chloride, 3,5,7,3′,4′,5′-Hexahydroxyflavylium chloride]
- Ratio to Control Rate Mean ± SE [1]: 0.4473 ± 0.0071

- Ratio to Control Rate Mean ± SE [4]: 5.45 ± 0.57
SMILES: O=c1c(O)c(-c2ccc(O)c(O)c2)oc2ccc(O)cc12 [3,6,3′,4′-Tetrahydroxyflavone]
